# Assay results taken from ChEMBL document CHEMBL4308841, “Synthesis, in vitro antiproliferative activity, and kinase inhibitory effects of pyrazole-containing diarylureas and diarylamides” (Eur J Med Chem, 2018).
# How the values were obtained:
# [1] = tested on: MOLT-4; assay: Growth inhibition of human MOLT4 cells incubated for 48 hrs by sulforhodamine B assay; format: functional, cell-based; conditions: MOLT-4, 48 h
# [2] = tested on: HCC 2998; assay: Growth inhibition of human HCC2998 cells incubated for 48 hrs by sulforhodamine B assay; format: functional, cell-based; conditions: HCC 2998, 48 h
# [3] = tested on: SNB-19; assay: Growth inhibition of human SNB19 cells incubated for 48 hrs by sulforhodamine B assay; format: functional, cell-based; conditions: SNB-19, 48 h
# [4] = tested on: UACC-257; assay: Growth inhibition of human UACC257 cells incubated for 48 hrs by sulforhodamine B assay; format: functional, cell-based; conditions: UACC-257, 48 h
# [5] = tested on: PC-3; assay: Growth inhibition of human PC3 cells incubated for 48 hrs by sulforhodamine B assay; format: functional, cell-based; conditions: PC-3, 48 h
# [6] = tested on: MDA-MB-231; assay: Growth inhibition of human MDA-MB-231 cells incubated for 48 hrs by sulforhodamine B assay; format: functional, cell-based; conditions: MDA-MB-231, 48 h
# [7] = tested on: HL-60(TB); assay: Growth inhibition of human HL-60(TB) cells assessed as cell growth at 0.01 uM incubated for 48 hrs by sulforhodamine B assay relative to control; format: functional; conditions: HL-60, 48 h, read-out: Activity
# [8] = tested on: NCI-H322M; assay: Growth inhibition of human NCI-H322M cells assessed as cell growth at 0.01 uM incubated for 48 hrs by sulforhodamine B assay relative to control; format: functional; conditions: read-out: Activity
# [9] = tested on: NCI-H460; assay: Growth inhibition of human NCI-H460 cells assessed as cell growth at 0.01 uM incubated for 48 hrs by sulforhodamine B assay relative to control; format: functional; conditions: NCI-H460, 48 h, read-out: Activity
# [10] = tested on: KM12; assay: Growth inhibition of human KM12 cells assessed as cell growth at 0.01 uM incubated for 48 hrs by sulforhodamine B assay relative to control; format: functional; conditions: KM12, 48 h, read-out: Activity
# [11] = tested on: SNB-75; assay: Growth inhibition of human SNB75 cells assessed as cell growth at 0.01 uM incubated for 48 hrs by sulforhodamine B assay relative to control; format: functional; conditions: SNB-75, 48 h, read-out: Activity
# [12] = tested on: MDA-MB-435; assay: Growth inhibition of human MDA-MB-435 cells assessed as cell growth at 0.01 uM incubated for 48 hrs by sulforhodamine B assay relative to control; format: functional; conditions: MDA-MB-435, 48 h, read-out: Activity
# [13] = tested on: DU-145; assay: Growth inhibition of human DU145 cells assessed as cell growth at 0.01 uM incubated for 48 hrs by sulforhodamine B assay relative to control; format: functional; conditions: DU-145, 48 h, read-out: Activity
# [14] = tested on: NCI-H322M; assay: Growth inhibition of human NCI-H322M cells assessed as cell growth at 0.1 uM incubated for 48 hrs by sulforhodamine B assay relative to control; format: functional; conditions: read-out: Activity
# [15] = tested on: NCI-H522; assay: Growth inhibition of human NCI-H522 cells assessed as cell growth at 0.1 uM incubated for 48 hrs by sulforhodamine B assay relative to control; format: functional; conditions: NCI-H522, 48 h, read-out: Activity
# [16] = tested on: KM12; assay: Growth inhibition of human KM12 cells assessed as cell growth at 0.1 uM incubated for 48 hrs by sulforhodamine B assay relative to control; format: functional; conditions: KM12, 48 h, read-out: Activity
# [17] = tested on: M14; assay: Growth inhibition of human M14 cells assessed as cell growth at 0.1 uM incubated for 48 hrs by sulforhodamine B assay relative to control; format: functional; conditions: M14, 48 h, read-out: Activity
# [18] = tested on: CAKI-1; assay: Growth inhibition of human Caki1 cells assessed as cell growth at 0.1 uM incubated for 48 hrs by sulforhodamine B assay relative to control; format: functional; conditions: CAKI-1, 48 h, read-out: Activity
# [19] = tested on: CCRF-CEM; assay: Growth inhibition of human CCRF-CEM cells assessed as cell growth at 1 uM incubated for 48 hrs by sulforhodamine B assay relative to control; format: functional; conditions: read-out: Activity
# [20] = tested on: NCI/ADR-RES; assay: Growth inhibition of human NCI/ADR-RES cells assessed as cell growth at 1 uM incubated for 48 hrs by sulforhodamine B assay relative to control; format: functional; conditions: read-out: Activity
# [21] = tested on: SN12C; assay: Growth inhibition of human SN12C cells assessed as cell growth at 1 uM incubated for 48 hrs by sulforhodamine B assay relative to control; format: functional; conditions: read-out: Activity
# [22] = tested on: MCF7; assay: Growth inhibition of human MCF7 cells assessed as cell growth at 1 uM incubated for 48 hrs by sulforhodamine B assay relative to control; format: functional; conditions: MCF7, 48 h, read-out: Activity
# [23] = tested on: NCI-H226; assay: Growth inhibition of human NCI-H226 cells assessed as cell growth at 100 uM incubated for 48 hrs by sulforhodamine B assay relative to control; format: functional; conditions: NCI-H226, 48 h, read-out: Activity
# [24] = tested on: SF-539; assay: Growth inhibition of human SF539 cells assessed as cell growth at 100 uM incubated for 48 hrs by sulforhodamine B assay relative to control; format: functional; conditions: SF-539, 48 h, read-out: Activity
# [25] = tested on: SK-MEL-2; assay: Growth inhibition of human SK-MEL-2 cells assessed as cell growth at 100 uM incubated for 48 hrs by sulforhodamine B assay relative to control; format: functional; conditions: SK-MEL-2, 48 h, read-out: Activity
# [26] = tested on: SK-MEL-5; assay: Growth inhibition of human SK-MEL-5 cells assessed as cell growth at 100 uM incubated for 48 hrs by sulforhodamine B assay relative to control; format: functional; conditions: SK-MEL-5, 48 h, read-out: Activity
# [27] = tested on: MDA-MB-231; assay: Growth inhibition of human MDA-MB-231 cells assessed as cell growth at 100 uM incubated for 48 hrs by sulforhodamine B assay relative to control; format: functional; conditions: MDA-MB-231, 48 h, read-out: Activity
# [28] = tested on: MDA-MB-468; assay: Growth inhibition of human MDA-MB-468 cells assessed as cell growth at 100 uM incubated for 48 hrs by sulforhodamine B assay relative to control; format: functional; conditions: MDA-MB-468, 48 h, read-out: Activity
# [29] = read-out: LC50 (the source's name)
# [30] = read-out: pLC50 (the source's name) (converted)
structure (smiles),measurement,setting,value
COc1cc(Cl)cc(-c2nn(-c3cccc(NC(=O)Nc4cc(C(F)(F)F)cc(C(F)(F)F)c4)c3)cc2-c2ccncc2)c1,IC50,[1],310 nM
same,GI50,[1]; read-out: GI50,306 nM
same,CC50,[1]; [29],> 100000 nM
same,TGI,[1]; read-out: TGI,1640 nM
same,GI50,[1]; read-out: pGI50 (converted),302 nM
same,CC50,[1]; [30],> 100000 nM
same,TGI,[1]; read-out: pTGI (converted),1620 nM
same,IC50,[2],620 nM
same,GI50,[2]; read-out: GI50,622 nM
same,TGI,[2]; read-out: TGI,4950 nM
same,GI50,[2]; read-out: pGI50 (converted),617 nM
same,CC50,[2]; [30],42700 nM
same,TGI,[2]; read-out: pTGI (converted),5010 nM
same,IC50,[3],420 nM
same,GI50,[3]; read-out: GI50,420 nM
same,CC50,[3]; [29],> 100000 nM
same,TGI,[3]; read-out: TGI,11300 nM
same,GI50,[3]; read-out: pGI50 (converted),417 nM
same,CC50,[3]; [30],> 100000 nM
same,TGI,[3]; read-out: pTGI (converted),11200 nM
same,IC50,[4],410 nM
same,GI50,[4]; read-out: GI50,412 nM
same,CC50,[4]; [29],70 nM
same,TGI,[4]; read-out: TGI,1840 nM
same,GI50,[4]; read-out: pGI50 (converted),407 nM
same,CC50,[4]; [30],7080 nM
same,TGI,[4]; read-out: pTGI (converted),1860 nM
same,IC50,[5],300 nM
same,GI50,[5]; read-out: GI50,297 nM
same,CC50,[5]; [29],> 100000 nM
same,TGI,[5]; read-out: TGI,1630 nM
same,GI50,[5]; read-out: pGI50 (converted),295 nM
same,CC50,[5]; [30],> 100000 nM
same,TGI,[5]; read-out: pTGI (converted),1620 nM
same,IC50,[6],460 nM
same,GI50,[6]; read-out: GI50,456 nM
same,TGI,[6]; read-out: TGI,1860 nM
same,GI50,[6]; read-out: pGI50 (converted),457 nM
same,CC50,[6]; [30],5370 nM
same,TGI,[6]; read-out: pTGI (converted),1860 nM
same,growth at 0.01 µM,[7],92%
same,growth at 0.01 µM,[8],100%
same,growth at 0.01 µM,[9],101%
same,growth at 0.01 µM,[10],97%
same,growth at 0.01 µM,[11],71%
same,growth at 0.01 µM,[12],97%
same,growth at 0.01 µM,[13],104%
same,growth at 0.1 µM,[14],95%
same,growth at 0.1 µM,[15],80%
same,growth at 0.1 µM,[16],98%
same,growth at 0.1 µM,[17],93%
same,growth at 0.1 µM,[18],95%
same,growth at 1 µM,[19],5%
same,growth at 1 µM,[20],48%
same,growth at 1 µM,[21],17%
same,growth at 1 µM,[22],21%
same,growth at 100 µM,[23],-47%
same,growth at 100 µM,[24],-73%
same,growth at 100 µM,[25],-83%
same,growth at 100 µM,[26],-70%
same,growth at 100 µM,[27],-70%
same,growth at 100 µM,[28],-40%
COc1cc(Cl)cc(-c2nn(-c3cccc(NC(=O)Nc4ccc(Cl)c(C(F)(F)F)c4)c3)cc2-c2ccncc2)c1,GI50,[1]; read-out: GI50,1230 nM
same,CC50,[1]; [29],> 100000 nM
same,TGI,[1]; read-out: TGI,45500 nM
same,GI50,[1]; read-out: pGI50 (converted),1230 nM
same,CC50,[1]; [30],> 100000 nM
same,TGI,[1]; read-out: pTGI (converted),4680 nM
same,GI50,[2]; read-out: GI50,2910 nM
same,CC50,[2]; [29],4410 nM
same,TGI,[2]; read-out: TGI,90200 nM
same,GI50,[2]; read-out: pGI50 (converted),2880 nM
same,CC50,[2]; [30],43700 nM
same,TGI,[2]; read-out: pTGI (converted),9120 nM
same,GI50,[3]; read-out: GI50,2930 nM
same,CC50,[3]; [29],> 100000 nM
same,TGI,[3]; read-out: TGI,17500 nM
same,GI50,[3]; read-out: pGI50 (converted),1170 nM
same,CC50,[3]; [30],> 100000 nM
same,TGI,[3]; read-out: pTGI (converted),17800 nM
same,GI50,[4]; read-out: GI50,1590 nM
same,CC50,[4]; [29],1550 nM
same,TGI,[4]; read-out: TGI,49300 nM
same,GI50,[4]; read-out: pGI50 (converted),1910 nM
same,CC50,[4]; [30],18600 nM
same,TGI,[4]; read-out: pTGI (converted),2950 nM
same,IC50,[5],340 nM
same,GI50,[5]; read-out: GI50,342 nM
same,CC50,[5]; [29],> 100000 nM
same,TGI,[5]; read-out: TGI,21200 nM
same,GI50,[5]; read-out: pGI50 (converted),339 nM
same,CC50,[5]; [30],> 100000 nM
same,TGI,[5]; read-out: pTGI (converted),2140 nM
same,GI50,[6]; read-out: GI50,1440 nM
same,CC50,[6]; [29],9520 nM
same,TGI,[6]; read-out: TGI,37400 nM
same,GI50,[6]; read-out: pGI50 (converted),1450 nM
same,CC50,[6]; [30],9770 nM
same,TGI,[6]; read-out: pTGI (converted),3720 nM
same,growth at 0.01 µM,[7],96%
same,growth at 0.01 µM,[8],96%
same,growth at 0.01 µM,[9],100%
same,growth at 0.01 µM,[10],95%
same,growth at 0.01 µM,[11],57%
same,growth at 0.01 µM,[12],95%
same,growth at 0.01 µM,[13],103%
same,growth at 0.1 µM,[14],98%
same,growth at 0.1 µM,[15],77%
same,growth at 0.1 µM,[16],98%
same,growth at 0.1 µM,[17],96%
same,growth at 0.1 µM,[18],99%
same,growth at 1 µM,[19],37%
same,growth at 1 µM,[20],66%
same,growth at 1 µM,[21],63%
same,growth at 1 µM,[22],50%
same,growth at 100 µM,[23],-29%
same,growth at 100 µM,[24],-78%
same,growth at 100 µM,[25],-85%
same,growth at 100 µM,[26],-77%
same,growth at 100 µM,[27],-88%
same,growth at 100 µM,[28],-27%
